# Key:
# [1] = Cytotoxicity against human NALM6 cells after 72 hrs by Cell-Titer Glo assay; assay type: functional, cell-based; conditions: NALM-6, 72 h
# [2] = Cytotoxicity against human SEM cells after 72 hrs by Cell-Titer Glo assay; assay type: functional, cell-based
# HepG2 = assay: Cytotoxicity against human HepG2 cells after 72 hrs by Cell-Titer Glo assay; assay type: functional, cell-based; conditions: HepG2, 72 h
# Raji = assay: Cytotoxicity against human Raji cells after 72 hrs by Cell-Titer Glo assay; assay type: functional, cell-based
# BJ = assay: Cytotoxicity against human BJ cells after 72 hrs by Cell-Titer Glo assay; assay type: cell-based
# HEK293 = assay: Cytotoxicity against HEK293 cells after 72 hrs by Cell-Titer Glo assay; assay type: cell-based; conditions: Homo sapiens, HEK293, 72 h
Compound,EC50 [1] [µM],EC50 [2] [µM],EC50 (HepG2) [µM],EC50 (Raji) [µM],EC50 (BJ) [µM],EC50 (HEK293) [µM]
C=C[C@@](C)(/C=C/c1ccc(Nc2ccc(OC)c(OC)c2)cc1)CCC=C(C)C,> 43.5,> 36.6,> 52.1,> 26,> 36.6,> 36.6
C=C[C@@](C)(/C=C/c1ccc(-c2c(F)c(F)c(F)c(F)c2F)cc1)CCC=C(C)C,> 43.5,> 36.6,> 52.1,> 26,> 36.6,> 36.6
C=C[C@@](C)(/C=C/c1ccc(Nc2ccc(OC)c(F)c2)cc1)CCC=C(C)C,> 43.5,> 36.6,> 52.1,> 26,> 36.6,> 36.6
C=C[C@@](C)(/C=C/c1ccc(Nc2ccc(Cl)cc2)cc1)CCC=C(C)C,> 43.5,> 36.6,> 52.1,> 26,> 36.6,> 36.6
CC(C)=CCC[C@@](C)(/C=C/c1ccccc1)/C=C/c1ccc(O)cc1,> 43.5,> 36.6,> 52.1,> 26,> 36.6,> 36.6
C=C[C@@](C)(/C=C/c1ccc(-c2ccccc2)cc1)CCC=C(C)C,> 43.5,> 36.6,> 52.1,> 26,> 36.6,> 36.6
C=C[C@@](C)(/C=C/c1ccc(Nc2cc(F)c(F)c(F)c2)cc1)CCC=C(C)C,> 43.5,> 36.6,> 52.1,> 26,> 36.6,> 36.6
CC(C)=CCC[C@@](C)(/C=C/c1ccc(C)cc1)/C=C/c1ccc(O)cc1,> 43.5,> 36.6,> 52.1,> 26,> 36.6,> 36.6
C=C[C@@](C)(/C=C/c1ccc(-c2cccc(Br)c2)cc1)CCC=C(C)C,> 43.5,> 36.6,> 52.1,> 26,> 36.6,> 36.6
CC(C)=CCC[C@](C)(/C=C/c1ccc(O)cc1)/C=C/c1cccc(Cl)c1,> 43.5,> 36.6,> 52.1,> 26,> 36.6,> 36.6
C=C[C@@](C)(/C=C/c1ccc(Nc2ccc(F)cc2)cc1)CCC=C(C)C,> 43.5,> 36.6,> 52.1,> 26,> 36.6,> 36.6
C=C[C@@](C)(/C=C/c1ccc(Nc2ccc(OC(F)(F)F)cc2)cc1)CCC=C(C)C,> 43.5,> 36.6,> 52.1,> 26,> 36.6,> 36.6
CC(C)=CCC[C@](C)(/C=C/c1ccc(O)cc1)/C=C/c1ccc(C#N)cc1,> 43.5,> 36.6,> 52.1,> 26,> 36.6,> 36.6
C=C[C@@](C)(/C=C/c1ccc(Nc2ccc(OC)cc2)cc1)CCC=C(C)C,> 43.5,> 36.6,> 52.1,> 26,> 36.6,> 36.6
C=C[C@@](C)(/C=C/c1ccc(Nc2c(F)cc(F)cc2F)cc1)CCC=C(C)C,> 43.5,> 36.6,> 52.1,> 26,> 36.6,> 36.6
C=C[C@@](C)(/C=C/c1ccc(Nc2ccc(Cl)c(Cl)c2)cc1)CCC=C(C)C,> 43.5,> 36.6,> 52.1,> 26,> 36.6,> 36.6
C=C[C@@](C)(/C=C/c1ccc(Nc2cccc(C(F)(F)F)c2)cc1)CCC=C(C)C,> 43.5,> 36.6,> 52.1,> 26,> 36.6,> 36.6
C=C[C@@](C)(/C=C/c1ccc(-c2ccc(F)cc2)cc1)CCC=C(C)C,> 43.5,> 36.6,> 52.1,> 26,> 36.6,> 36.6
C=C[C@@](C)(/C=C/c1ccc(-c2ccc(Cl)cc2)cc1)CCC=C(C)C,> 43.5,> 36.6,> 52.1,> 26,> 36.6,> 36.6
C=C[C@@](C)(/C=C/c1ccc(Nc2ccccc2)cc1)CCC=C(C)C,> 43.5,> 36.6,> 52.1,> 26,> 36.6,> 36.6
C=C[C@@](C)(/C=C/c1ccc(Nc2cccc(OC(F)(F)F)c2)cc1)CCC=C(C)C,> 43.5,> 36.6,> 52.1,> 26,> 36.6,> 36.6
